In one experiment the target is T1, mouse TGR5 receptor (Mus musculus, UniProt Q80SS6).
T1 construct: host or cells: HEK293-EBNA (293 c18, ATCC CRL10852)
T1 sequence (Q80SS6 1-329): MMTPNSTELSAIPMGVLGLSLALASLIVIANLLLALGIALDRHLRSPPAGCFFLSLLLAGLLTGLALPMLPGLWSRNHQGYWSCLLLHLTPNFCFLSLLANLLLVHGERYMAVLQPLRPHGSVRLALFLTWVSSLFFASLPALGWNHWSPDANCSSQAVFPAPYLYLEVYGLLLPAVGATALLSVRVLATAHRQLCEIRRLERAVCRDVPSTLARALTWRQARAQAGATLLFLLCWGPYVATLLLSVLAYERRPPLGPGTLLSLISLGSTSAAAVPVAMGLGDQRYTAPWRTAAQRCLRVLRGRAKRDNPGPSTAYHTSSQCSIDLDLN
In words: Mouse TGR5 HTRF cAMP production assay (HEK293-EBNA cells, Cisbio cAMP HiRange kit). Particulars: HEK293-EBNA cells overexpressing mouse TGR5, HTRF cAMP assay. It is filed as cell-based. The gist of the method:
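cAMP accumulation was read by competitive HTRF after 1 h room-temperature compound treatment, with a further 1 h conjugate incubation. Cells were mouse TGR5-overexpressing HEK293-EBNA in serum-free DMEM plus 500 μM IBMX. Compounds ran as 12-point half-log series in duplicate, and EC50 values were reported.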
Background: In TR-FRET formats the signal depends on donor and acceptor labels being close together.

The next experiment concerns the target T2, human TGR5 receptor (Homo sapiens, UniProt Q8TDU6).
T2 construct: host or cells: CHO-K1 (hTGR5-CHO)
T2 sequence (Q8TDU6 1-330): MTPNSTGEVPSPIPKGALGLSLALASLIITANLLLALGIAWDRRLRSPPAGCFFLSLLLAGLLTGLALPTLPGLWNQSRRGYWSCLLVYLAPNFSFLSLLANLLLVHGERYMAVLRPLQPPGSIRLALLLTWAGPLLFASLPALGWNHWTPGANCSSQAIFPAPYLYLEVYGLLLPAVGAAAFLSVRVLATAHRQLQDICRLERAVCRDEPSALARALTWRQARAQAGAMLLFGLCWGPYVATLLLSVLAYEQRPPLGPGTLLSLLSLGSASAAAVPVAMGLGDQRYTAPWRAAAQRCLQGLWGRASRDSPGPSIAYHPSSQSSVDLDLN
In words: Human TGR5 cAMP production assay (hTGR5-CHO cells, DiscoveRx cAMP XS+ kit). It is filed as cell-based. Particulars: luminescent cAMP assay, read-out: Human TGR5 Lum. cAMP Activity (EC50). The method in brief: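 EC50 values come from luminescent enzyme-complementation cAMP detection, read after overnight incubation. Beforehand, hTGR5-expressing CHO-K1 cells with IBMX and anti-cAMP antibody were exposed 1 h at room temperature to serially diluted (half-log) compounds.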
A general note: cAMP levels reflect the balance of adenylyl cyclase and phosphodiesterase activity.

Drawing on patent US10654834B2 (Venenum Biodesign, LLC, priority 2016, dated 2020), this text covers EC50 for 19 compounds.

On to `N=C(N)N1CCC(CCCC2CCN(c3cc(N4CC[C@H]4C(=O)NCCc4ccc(C(F)(F)F)cc4)nc(C(F)(F)F)n3)CC2)CC1` [Compound 288, (S)-1-(6-(4-(3-(1-carbamimidoylpiperidin-4-yl)propyl)piperidin-1-yl)-2-(trifluoromethyl)pyrimidin-4-yl)-N-(4-(trifluoromethyl)phenethyl)-azetidine-2-carboxamide], for which the EC50 (usually the midpoint of the concentration-response curve) at mouse TGR5 receptor is under 100 nM; at human TGR5 receptor, 100 to 999 nM.
Take `N=C(N)N1CCC(C2CCN(c3cc(N4CC[C@H]4C(=O)NCCc4ccc(C(F)(F)F)cc4)nc(C(F)(F)F)n3)CC2)CC1` [Compound 289, (S)-1-(6-(1′-carbamimidoyl-[4,4′-bipiperidin]-1-yl)-2-(trifluoromethyl)pyrimidin-4-yl)-N-(4-(trifluoromethyl)phenethyl)-azetidine-2-carboxamide]: the EC50 on mouse TGR5 receptor and on human TGR5 receptor was under 100 nM in each case.
On to `COC(=O)c1ccc(S(=O)(=O)NCCOCCNC(=O)CCCC2CCN(c3cc(N4CC[C@H]4C(=O)NCCc4ccc(C#N)cc4)nc(C(F)(F)F)n3)CC2)cc1` [Compound 290, (S)-methyl 4-(N-(2-(2-(4-(1-(6-(2-((4-cyanophenethyl)carbamoyl)azetidin-1-yl)-2-(trifluoromethyl)pyrimidin-4-yl)piperidin-4-yl)butanamido)ethoxy)ethyl)-sulfamoyl)benzoate], for which the EC50 at mouse TGR5 receptor was under 100 nM; on human TGR5 receptor, 100 to 999 nM.
Regarding `N#Cc1ccc(CCNC(=O)[C@@H]2CCN2c2cc(N3CCC(CCCC(=O)NCCOCCNS(=O)(=O)c4ccc(C(=O)O)cc4)CC3)nc(C(F)(F)F)n2)cc1` [Compound 291, (S)-4-(N-(2-(2-(4-(1-(6-(2-((4-cyanophenethyl)carbamoyl)azetidin-1-yl)-2-(trifluoromethyl)pyrimidin-4-yl)piperidin-4-yl)butanamido)ethoxy)ethyl)sulfamoyl)-benzoic acid], the figures for the concentration giving a half-maximal response (EC50) on mouse TGR5 receptor and on human TGR5 receptor were under 100 nM and 100 to 999 nM, respectively.
Consider `CN(CCS(=O)(=O)O)c1c(NCCC2CCN(c3cc(N4CC[C@H]4C(=O)NCCc4ccc(C#N)cc4)nc(C(F)(F)F)n3)CC2)c(=O)c1=O` [Compound 299, (S)-2-((2-((2-(1-(6-(2-((4-cyanophenethyl)carbamoyl)azetidin-1-yl)-2-(trifluoromethyl)pyrimidin-4-yl)piperidin-4-yl)ethyl)amino)-3,4-dioxocyclobut-1-en-1-yl)(methyl)amino)ethanesulfonic acid], for which the EC50 at mouse TGR5 receptor and on human TGR5 receptor was under 100 nM throughout.
Take `CC(C)(C)OC(=O)CCNc1c(NCCC2CCN(c3cc(N4CC[C@H]4C(=O)NCCc4ccc(C#N)cc4)nc(C(F)(F)F)n3)CC2)c(=O)c1=O` [Compound 300, (S)-tert-butyl 3-((2-((2-(1-(6-(2-((4-cyanophenethyl)carbamoyl)azetidin-1-yl)-2-(trifluoromethyl)pyrimidin-4-yl)piperidin-4-yl)ethyl)amino)-3,4-dioxocyclobut-1-en-1-yl)amino)propanoate]: the EC50 at mouse TGR5 receptor is under 100 nM; on human TGR5 receptor, 100 to 999 nM.
The corresponding values for `N#CCCC1CCN(c2cc(N3CCC[C@@H](C(=O)NCCc4ccc(C#N)cc4)C3)nc(C(F)(F)F)n2)CC1` [Compound 311, (R)-1-(6-(4-(2-cyanoethyl)piperidin-1-yl)-2-(trifluoromethyl)pyrimidin-4-yl)-N-(4-cyanophenethyl)piperidine-3-carboxamide] are under 100 nM and under 100 nM.
Consider `CC(C)(C)OC(=O)NCCC1CCN(c2cc(N3CCC[C@@H](C(=O)NCCc4ccc(C#N)cc4)C3)nc(C(F)(F)F)n2)CC1` [Compound 312, (R)-tert-butyl (2-(1-(6-(3-((4-cyanophenethyl)carbamoyl)piperidin-1-yl)-2-(trifluoromethyl)pyrimidin-4-yl)piperidin-4-yl)ethyl)carbamate], for which the EC50 on mouse TGR5 receptor and on human TGR5 receptor was 100 to 999 nM in each case.
On to `N#Cc1ccc(CCNC(=O)[C@@H]2CCCN(c3cc(N4CCN(CCOCCO)CC4)nc(C(F)(F)F)n3)C2)cc1` [Compound 314, (R)-N-(4-cyanophenethyl)-1-(6-(4-(2-(2-hydroxyethoxy)ethyl)piperazin-1-yl)-2-(trifluoromethyl)pyrimidin-4-yl)piperidine-3-carboxamide], for which the EC50 on mouse TGR5 receptor is under 100 nM; at human TGR5 receptor, 100 to 999 nM.
The corresponding values for `N#Cc1ccc(CCNC(=O)[C@@H]2CCCN(c3cc(N4CCN(CC(=O)O)CC4)nc(C(F)(F)F)n3)C2)cc1` [Compound 315, (R)-2-(4-(6-(3-((4-cyanophenethyl)carbamoyl)piperidin-1-yl)-2-(trifluoromethyl)pyrimidin-4-yl)piperazin-1-yl)acetic acid] are under 100 nM and 1000 to 30000 nM.
Consider `N#CCCN1CCN(c2cc(N3CCC[C@@H](C(=O)NCCc4ccc(C#N)cc4)C3)nc(C(F)(F)F)n2)CC1` [Compound 316, (R)-1-(6-(4-(2-cyanoethyl)piperazin-1-yl)-2-(trifluoromethyl)pyrimidin-4-yl)-N-(4-cyanophenethyl)piperidine-3-carboxamide], for which the EC50 at mouse TGR5 receptor and at human TGR5 receptor was under 100 nM throughout.
Turning to `N#Cc1ccc(CCNC(=O)[C@@H]2CCCN(c3cc(N4CCN(CCn5ccnc5)CC4)nc(C(F)(F)F)n3)C2)cc1` [Compound 318, (R)-1-(6-(4-(2-(1H-imidazol-1-yl)ethyl)piperazin-1-y1)-2-(trifluoromethyl)pyrimidin-4-yl)-N-(4-cyanophenethyl)piperidine-3-carboxamide], the EC50 is under 100 nM at mouse TGR5 receptor and 100 to 999 nM at human TGR5 receptor.
With `COc1cc(C(F)(F)F)ccc1CCNC(=O)[C@@H]1CCCN(c2cc(N3CCC(CO)CC3)nc(C(F)(F)F)n2)C1` [Compound 331], the EC50 on mouse TGR5 receptor is 100 to 999 nM; on human TGR5 receptor it was under 100 nM.
Consider `O=C(CCCC1CCN(c2cc(N3CCC[C@@H](C(=O)NCCc4ccc(C(F)(F)F)cc4)C3)nc(C(F)(F)F)n2)CC1)NCCS(=O)(=O)O` [Compound 336, (R)-2-(4-(1-(2-(trifluoromethyl)-6-(3-((4-(trifluoromethyl)phenethyl)carbamoyl)-piperidin-1-yl)pyrimidin-4-yl)piperidin-4-yl)butanamido)ethanesulfonic acid], for which the EC50 at mouse TGR5 receptor is under 100 nM; at human TGR5 receptor, 100 to 999 nM.
Regarding `CN(C)CC(=O)N1CCN(c2cc(N3CCC[C@@H](C(=O)NCCc4ccc(C(F)(F)F)cc4)C3)nc(C(F)(F)F)n2)CC1` [Compound 338, (R)-1-(6-(4-(2-(dimethylamino)-acetyl)piperazin-1-yl)-2-(trifluoromethyl)-pyrimidin-4-yl)-N-(4-(trifluoromethyl)phenethyl)-piperidine-3-carboxamide], the EC50 on mouse TGR5 receptor and on human TGR5 receptor was 100 to 999 nM each time.
Turning to `COC(=O)C(=O)N1CCN(c2cc(N3CCC[C@@H](C(=O)NCCc4ccc(C(F)(F)F)cc4)C3)nc(C(F)(F)F)n2)CC1` [Compound 339, (R)-methyl 2-oxo-2-(4-(2-(trifluoromethyl)-6-(3-((4-(trifluoromethyl)phenethyl)-carbamoyl)piperidin-1-yl)pyrimidin-4-yl)piperazin-1-yl)acetate], the EC50 at mouse TGR5 receptor was in the range of 100 to 999 nM; at human TGR5 receptor, 1000 to 30000 nM.
The corresponding values for `O=C(O)C(=O)N1CCN(c2cc(N3CCC[C@@H](C(=O)NCCc4ccc(C(F)(F)F)cc4)C3)nc(C(F)(F)F)n2)CC1` [Compound 340, (R)-2-oxo-2-(4-(2-(trifluoromethyl)-6-(3-((4-(trifluoromethyl)phenethyl)-carbamoyl)piperidin-1-yl)pyrimidin-4-yl)piperazin-1-yl)acetic acid] are under 100 nM and 100 to 999 nM.
With `CC(C)(C)OC(=O)N[C@@H](CO)C(=O)N1CCN(c2cc(N3CCC[C@@H](C(=O)NCCc4ccc(C(F)(F)F)cc4)C3)nc(C(F)(F)F)n2)CC1` [Compound 341, tert-butyl ((S)-3-hydroxy-t-oxo-1-(4-(2-(trifluoromethyl)-6-((R)-3-((4-(trifluoromethyl)phenethyl)carbamoyl)piperidin-1-yl)pyrimidin-4-yl)piperazin-1-yl)propan-2-yl)carbamate], the EC50 on mouse TGR5 receptor was in the range of 100 to 999 nM; on human TGR5 receptor, 1000 to 30000 nM.
The corresponding values for `CCOC(=O)CCNC(=O)N1CCN(c2cc(N3CCC[C@@H](C(=O)NCCc4ccc(C(F)(F)F)cc4)C3)nc(C(F)(F)F)n2)CC1` [Compound 343, (R)-ethyl 3-(4-(2-(trifluoromethyl)-6-(3-((4-(trifluoromethyl)phenethyl)carbamoyl)-piperidin-1-yl)pyrimidin-4-yl)piperazine-1-carboxamido)propanoate] are under 100 nM and 100 to 999 nM.
